Experimental data as given in ChEMBL document CHEMBL5465560, “Selectivity Literature for EUbOPEN Chemogenomic Library” (2024).

Legend:
[1] = target: T1, Eukaryotic elongation factor 2 kinase (Homo sapiens) (UniProt O00418); assay: Selectivity interaction (Upstate Kinase Profiler service (Millipore)) EUB0000056c EEF2K; details: at 1 µM
T1 sequence (whole entry): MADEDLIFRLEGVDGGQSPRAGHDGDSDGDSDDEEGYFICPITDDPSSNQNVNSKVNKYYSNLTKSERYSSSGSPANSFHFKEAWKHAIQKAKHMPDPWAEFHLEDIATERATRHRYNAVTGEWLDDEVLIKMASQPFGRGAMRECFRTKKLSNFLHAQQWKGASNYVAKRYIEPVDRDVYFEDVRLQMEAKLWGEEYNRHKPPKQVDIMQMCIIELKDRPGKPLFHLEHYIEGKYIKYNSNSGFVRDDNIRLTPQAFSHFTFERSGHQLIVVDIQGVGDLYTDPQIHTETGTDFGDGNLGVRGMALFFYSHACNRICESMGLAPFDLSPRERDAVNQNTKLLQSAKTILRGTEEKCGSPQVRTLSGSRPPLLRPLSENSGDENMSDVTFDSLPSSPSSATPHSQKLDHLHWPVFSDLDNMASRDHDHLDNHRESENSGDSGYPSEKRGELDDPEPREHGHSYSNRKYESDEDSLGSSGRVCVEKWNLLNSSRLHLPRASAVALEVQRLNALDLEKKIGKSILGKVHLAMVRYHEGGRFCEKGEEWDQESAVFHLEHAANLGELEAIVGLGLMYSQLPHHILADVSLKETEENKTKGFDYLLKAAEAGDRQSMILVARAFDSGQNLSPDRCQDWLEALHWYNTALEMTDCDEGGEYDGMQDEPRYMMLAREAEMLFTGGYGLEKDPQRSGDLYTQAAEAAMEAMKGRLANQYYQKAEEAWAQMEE

[2] = target: Vascular endothelial growth factor receptor 3 (Homo sapiens, UniProt P35916); assay: Selectivity interaction (KinomeScan (DiscoverX)) EUB0000655a FLT4; details: at 10 µM
[3] = target: Serine/threonine-protein kinase SIK1 (Homo sapiens) (UniProt P57059); assay: Selectivity interaction (KinomeScan (DiscoverX)) EUB0000655a SIK1; details: at 10 µM
[4] = target: Bromodomain-containing protein 2 (Homo sapiens) (UniProt P25440); assay: Selectivity interaction (Human bromodomain panel (DSF assay)) EUB0000233b BRD2
[5] = target: Tyrosine-protein kinase Fer (Homo sapiens) (UniProt P16591); assay: Selectivity interaction (Kinase panel (Invitrogen)) EUB0000639a FER; details: at 200 nM
[6] = target: T2, Ephrin type-B receptor 4 (Homo sapiens) (UniProt P54760); assay: Selectivity interaction (KinomeScan (DiscoverX)) EUB0000595a EPHB4; details: at 10 µM
T2 sequence (whole entry): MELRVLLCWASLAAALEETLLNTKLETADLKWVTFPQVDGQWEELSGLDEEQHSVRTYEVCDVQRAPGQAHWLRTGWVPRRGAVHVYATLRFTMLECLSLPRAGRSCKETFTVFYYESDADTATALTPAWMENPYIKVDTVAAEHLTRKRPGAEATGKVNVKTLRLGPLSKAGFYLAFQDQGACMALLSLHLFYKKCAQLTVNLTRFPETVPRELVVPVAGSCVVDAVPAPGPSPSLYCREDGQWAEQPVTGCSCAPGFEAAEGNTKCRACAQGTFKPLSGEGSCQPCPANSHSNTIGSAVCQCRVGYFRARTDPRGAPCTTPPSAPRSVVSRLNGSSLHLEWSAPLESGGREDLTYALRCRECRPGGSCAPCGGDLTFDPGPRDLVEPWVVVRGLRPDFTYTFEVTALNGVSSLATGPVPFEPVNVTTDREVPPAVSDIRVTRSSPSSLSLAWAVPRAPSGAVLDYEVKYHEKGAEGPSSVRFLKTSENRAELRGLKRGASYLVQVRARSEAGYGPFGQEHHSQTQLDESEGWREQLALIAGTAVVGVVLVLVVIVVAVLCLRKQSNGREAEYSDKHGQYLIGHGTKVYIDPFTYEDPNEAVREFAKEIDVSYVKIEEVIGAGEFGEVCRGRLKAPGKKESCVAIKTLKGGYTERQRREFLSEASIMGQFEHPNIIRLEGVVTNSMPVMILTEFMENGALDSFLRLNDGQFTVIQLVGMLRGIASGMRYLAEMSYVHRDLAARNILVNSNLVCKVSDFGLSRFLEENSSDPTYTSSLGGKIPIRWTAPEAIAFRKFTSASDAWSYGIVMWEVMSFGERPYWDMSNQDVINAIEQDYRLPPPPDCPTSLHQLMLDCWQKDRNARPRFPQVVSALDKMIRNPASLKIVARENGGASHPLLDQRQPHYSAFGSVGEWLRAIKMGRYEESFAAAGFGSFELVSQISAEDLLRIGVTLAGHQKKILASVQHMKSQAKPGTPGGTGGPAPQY

Sequence of Serine/threonine-protein kinase SIK1 (Homo sapiens) (P57059 whole entry): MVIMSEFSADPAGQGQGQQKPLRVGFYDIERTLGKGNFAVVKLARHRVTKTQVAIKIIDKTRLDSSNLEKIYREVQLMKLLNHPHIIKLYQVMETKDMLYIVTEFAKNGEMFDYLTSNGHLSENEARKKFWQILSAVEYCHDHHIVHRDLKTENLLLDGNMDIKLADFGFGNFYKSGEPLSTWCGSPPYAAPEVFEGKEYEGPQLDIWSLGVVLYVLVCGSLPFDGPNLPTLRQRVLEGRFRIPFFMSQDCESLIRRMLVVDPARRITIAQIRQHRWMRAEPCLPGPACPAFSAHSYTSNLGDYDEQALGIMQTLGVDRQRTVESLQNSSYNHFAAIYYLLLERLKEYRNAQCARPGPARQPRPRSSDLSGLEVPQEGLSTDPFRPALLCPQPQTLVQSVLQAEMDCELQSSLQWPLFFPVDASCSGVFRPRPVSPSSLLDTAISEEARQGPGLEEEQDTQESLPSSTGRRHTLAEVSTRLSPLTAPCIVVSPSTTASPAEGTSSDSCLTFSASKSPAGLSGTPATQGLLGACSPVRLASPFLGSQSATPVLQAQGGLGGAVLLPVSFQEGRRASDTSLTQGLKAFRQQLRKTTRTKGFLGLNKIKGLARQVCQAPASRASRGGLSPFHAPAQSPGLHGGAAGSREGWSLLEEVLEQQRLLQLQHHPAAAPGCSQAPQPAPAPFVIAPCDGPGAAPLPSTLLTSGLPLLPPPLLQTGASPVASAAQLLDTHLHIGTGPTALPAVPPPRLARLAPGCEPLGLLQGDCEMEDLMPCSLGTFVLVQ
Sequence of Bromodomain-containing protein 2 (Homo sapiens) (P25440 whole entry, looked up): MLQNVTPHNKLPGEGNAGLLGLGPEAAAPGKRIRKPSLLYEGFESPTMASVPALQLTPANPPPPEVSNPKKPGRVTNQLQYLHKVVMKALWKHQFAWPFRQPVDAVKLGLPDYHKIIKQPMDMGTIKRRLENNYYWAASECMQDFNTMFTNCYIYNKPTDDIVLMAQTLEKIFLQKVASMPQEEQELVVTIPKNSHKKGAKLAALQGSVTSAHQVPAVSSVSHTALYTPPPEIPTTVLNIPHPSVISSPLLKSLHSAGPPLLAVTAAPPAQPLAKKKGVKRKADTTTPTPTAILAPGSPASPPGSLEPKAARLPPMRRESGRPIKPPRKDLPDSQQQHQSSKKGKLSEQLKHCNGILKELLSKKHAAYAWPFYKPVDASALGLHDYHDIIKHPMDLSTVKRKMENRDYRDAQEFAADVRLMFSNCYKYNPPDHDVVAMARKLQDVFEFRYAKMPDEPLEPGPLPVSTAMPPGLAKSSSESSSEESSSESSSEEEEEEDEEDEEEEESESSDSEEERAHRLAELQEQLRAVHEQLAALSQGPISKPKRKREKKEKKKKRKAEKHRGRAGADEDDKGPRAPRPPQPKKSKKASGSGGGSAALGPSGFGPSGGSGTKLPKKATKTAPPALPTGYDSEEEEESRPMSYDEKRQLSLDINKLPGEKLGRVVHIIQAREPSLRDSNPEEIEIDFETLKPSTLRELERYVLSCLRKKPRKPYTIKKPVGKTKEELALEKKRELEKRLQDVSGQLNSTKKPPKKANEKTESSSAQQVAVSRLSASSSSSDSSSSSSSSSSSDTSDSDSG
Sequence of Tyrosine-protein kinase Fer (Homo sapiens) (P16591 whole entry, looked up): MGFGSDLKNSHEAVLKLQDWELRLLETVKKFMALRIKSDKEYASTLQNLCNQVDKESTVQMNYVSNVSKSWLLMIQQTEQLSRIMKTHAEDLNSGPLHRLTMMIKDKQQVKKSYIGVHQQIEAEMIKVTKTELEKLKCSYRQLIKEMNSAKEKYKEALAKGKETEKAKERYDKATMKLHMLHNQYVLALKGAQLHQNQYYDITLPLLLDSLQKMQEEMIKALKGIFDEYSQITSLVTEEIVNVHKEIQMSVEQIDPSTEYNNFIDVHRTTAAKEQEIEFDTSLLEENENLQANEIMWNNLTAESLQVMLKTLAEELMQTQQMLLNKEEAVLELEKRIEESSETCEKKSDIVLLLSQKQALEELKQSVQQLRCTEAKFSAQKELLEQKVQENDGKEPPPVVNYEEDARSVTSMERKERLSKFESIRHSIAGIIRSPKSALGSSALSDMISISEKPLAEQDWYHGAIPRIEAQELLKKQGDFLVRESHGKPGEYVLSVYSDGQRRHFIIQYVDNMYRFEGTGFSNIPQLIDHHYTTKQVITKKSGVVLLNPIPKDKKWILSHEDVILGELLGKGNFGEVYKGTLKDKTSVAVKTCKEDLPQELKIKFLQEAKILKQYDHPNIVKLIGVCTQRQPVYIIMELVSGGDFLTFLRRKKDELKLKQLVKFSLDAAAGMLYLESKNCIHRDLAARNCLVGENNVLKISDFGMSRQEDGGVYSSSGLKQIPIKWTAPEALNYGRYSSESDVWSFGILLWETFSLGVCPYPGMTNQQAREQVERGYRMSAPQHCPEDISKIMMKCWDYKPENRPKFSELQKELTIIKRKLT
Sequence of Vascular endothelial growth factor receptor 3 (P35916 whole entry): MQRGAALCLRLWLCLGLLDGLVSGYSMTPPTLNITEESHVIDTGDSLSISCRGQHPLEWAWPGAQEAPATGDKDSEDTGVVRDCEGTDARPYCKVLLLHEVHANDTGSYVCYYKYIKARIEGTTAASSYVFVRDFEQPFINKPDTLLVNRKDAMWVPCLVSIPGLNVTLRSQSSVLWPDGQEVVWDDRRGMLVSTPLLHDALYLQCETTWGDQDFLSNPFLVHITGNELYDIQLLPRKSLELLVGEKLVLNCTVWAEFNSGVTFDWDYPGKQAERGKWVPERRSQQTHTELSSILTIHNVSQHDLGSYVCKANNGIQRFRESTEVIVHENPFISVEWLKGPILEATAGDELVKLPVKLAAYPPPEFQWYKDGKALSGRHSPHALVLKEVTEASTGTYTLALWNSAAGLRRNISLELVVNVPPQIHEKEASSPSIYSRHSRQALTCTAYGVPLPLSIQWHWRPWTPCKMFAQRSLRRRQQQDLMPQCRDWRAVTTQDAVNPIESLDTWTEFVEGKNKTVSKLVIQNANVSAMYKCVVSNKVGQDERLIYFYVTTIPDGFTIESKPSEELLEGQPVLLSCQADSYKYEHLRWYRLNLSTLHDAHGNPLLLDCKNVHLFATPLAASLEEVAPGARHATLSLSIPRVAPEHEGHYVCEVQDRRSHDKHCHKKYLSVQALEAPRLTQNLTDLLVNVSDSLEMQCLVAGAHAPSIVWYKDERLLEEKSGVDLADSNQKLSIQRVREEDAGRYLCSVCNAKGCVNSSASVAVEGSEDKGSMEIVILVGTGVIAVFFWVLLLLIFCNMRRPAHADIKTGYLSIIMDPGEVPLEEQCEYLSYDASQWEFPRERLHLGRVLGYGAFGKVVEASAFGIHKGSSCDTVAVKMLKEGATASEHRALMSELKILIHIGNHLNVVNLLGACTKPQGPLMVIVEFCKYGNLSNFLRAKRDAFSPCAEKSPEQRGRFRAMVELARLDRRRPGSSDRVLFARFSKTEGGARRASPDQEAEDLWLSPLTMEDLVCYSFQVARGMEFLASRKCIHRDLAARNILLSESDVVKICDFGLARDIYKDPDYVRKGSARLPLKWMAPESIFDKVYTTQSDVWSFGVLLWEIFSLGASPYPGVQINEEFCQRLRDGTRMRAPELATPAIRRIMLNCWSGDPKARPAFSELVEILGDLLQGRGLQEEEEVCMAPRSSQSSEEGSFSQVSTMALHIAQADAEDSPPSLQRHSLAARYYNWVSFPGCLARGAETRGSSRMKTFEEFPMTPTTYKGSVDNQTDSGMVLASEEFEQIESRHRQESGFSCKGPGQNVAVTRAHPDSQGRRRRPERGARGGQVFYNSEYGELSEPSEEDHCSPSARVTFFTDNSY

In the case of `Cc1ccc(-c2ccc3c(ccc4sc5c(c43)NC[C@@H](C)NC5=O)n2)cn1`, the % of inhibition [1] is reported as -6%.
With `CN(C)CCOc1ccc(-c2nc(-c3ccncc3)c(-c3ccc4c(c3)CC/C4=N\O)[nH]2)cc1` the % of control [2] was 100% and the % of control [3] was 100%.
With `CN(C)CCCOc1ccc(-c2cc(NCCCn3cccn3)nc(S(C)(=O)=O)n2)cc1` the dTM [4] was < 2 K.
`CC[C@@H]1[C@H](F)C(=O)N[C@@H]1COc1nccc2cc(C(N)=O)c(OC)cc12` [ZIMLOVISERTIB] was tested, and the % of inhibition [5] was 9.46%.
Work on `COCC(=O)NC/C=C/c1ccc2ncnc(Nc3ccc(Oc4ccc(C)nc4)c(C)c3)c2c1` [CP-724714] yielded a % of control [6] of 95%.
